The source of these data is US9694016B2 (Novartis AG, priority 2013, dated 2017).

pIC50: −log10 of the molar value.

The target in this assay is b-Raf (V600E) (Homo sapiens (Human), UniProt P15056, V600E). The following applies: read-out: b-Raf IC-50; AlphaScreen, 60 min pre-incubation, 3 hours reaction. For orientation: In Alpha technology, singlet oxygen from a donor bead excites a nearby acceptor bead.
Chain of b-Raf (V600E) (P15056 whole entry V600E): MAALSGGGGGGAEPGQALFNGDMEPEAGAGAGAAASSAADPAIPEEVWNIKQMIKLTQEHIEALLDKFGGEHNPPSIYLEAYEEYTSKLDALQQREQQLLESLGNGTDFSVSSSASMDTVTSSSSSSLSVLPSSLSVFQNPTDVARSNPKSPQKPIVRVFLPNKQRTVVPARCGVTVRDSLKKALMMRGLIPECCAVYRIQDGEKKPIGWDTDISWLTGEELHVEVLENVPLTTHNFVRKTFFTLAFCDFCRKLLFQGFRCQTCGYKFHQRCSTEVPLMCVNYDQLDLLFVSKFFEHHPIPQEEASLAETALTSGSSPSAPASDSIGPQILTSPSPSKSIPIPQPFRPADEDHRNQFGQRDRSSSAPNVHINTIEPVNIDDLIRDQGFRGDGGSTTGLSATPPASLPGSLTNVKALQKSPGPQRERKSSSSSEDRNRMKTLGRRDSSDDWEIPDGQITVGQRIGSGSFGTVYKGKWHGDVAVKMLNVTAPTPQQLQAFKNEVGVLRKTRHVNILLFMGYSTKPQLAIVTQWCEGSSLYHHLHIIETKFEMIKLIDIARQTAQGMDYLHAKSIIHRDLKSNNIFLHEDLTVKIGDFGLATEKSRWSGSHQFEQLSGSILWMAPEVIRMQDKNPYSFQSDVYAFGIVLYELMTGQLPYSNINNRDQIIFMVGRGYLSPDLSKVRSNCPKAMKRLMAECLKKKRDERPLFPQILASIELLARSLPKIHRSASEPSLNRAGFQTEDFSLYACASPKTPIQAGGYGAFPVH
As to `Cc1ncc(NC(=O)c2ccnc(C(F)F)c2)cc1-c1cc(N2CCOCC2)n(C)c(=O)c1` [Example 508, 2-(difluoromethyl)-N-(1′,2-dimethyl-6′-morpholino-2′-oxo-1′,2′-dihydro-[3,4′-bipyridin]-5-yl)isonicotinamide], the pIC50 is 8.11.
With `Cc1ncc(NC(=O)c2cccc(S(C)(=O)=O)c2)cc1-c1cc(N2CCOCC2)n(C)c(=O)c1` [Example 509, N-(1′,2-dimethyl-6′-morpholino-2′-oxo-1′,2′-dihydro-[3,4′-bipyridin]-5-yl)-3-(methylsulfonyl)benzamide] the figure was 7.76; with `Cc1ncc(NC(=O)c2ccnc(C(C)(F)F)c2)cc1-c1cc(N2CCOCC2)n(C)c(=O)c1` [Example 510, 2-(1,1-difluoroethyl)-N-(1′,2-dimethyl-6′-morpholino-2′-oxo-1′,2′-dihydro-[3,4′-bipyridin]-5-yl)isonicotinamide], 8.12; with `Cc1ncc(NC(=O)c2ccnc(C3CC3)c2)cc1-c1cc(N2CCOCC2)n(C)c(=O)c1` [Example 511, 2-cyclopropyl-N-(1′,2-dimethyl-6′-morpholino-2′-oxo-1′,2′-dihydro-[3,4′-bipyridin]-5-yl)isonicotinamide], 8.19.
On to `Cc1ncc(NC(=O)c2cccc(C(C)(C)S(C)(=O)=O)c2)cc1-c1cc(N2CCOCC2)n(C)c(=O)c1` [Example 512, N-(1′,2-dimethyl-6′-morpholino-2′-oxo-1′,2′-dihydro-[3,4′-bipyridin]-5-yl)-3-(2-(methylsulfonyl)propan-2-yl)benzamide], for which the pIC50 is 7.22.
Turning to `Cn1c(N2CCOCC2)cc(-c2cc(NC(=O)c3ccnc(C(C)(F)F)c3)cnc2Cl)cc1=O` [Example 513, N-(2-chloro-1′-methyl-6′-morpholino-2′-oxo-1′,2′-dihydro-[3,4′-bipyridin]-5-yl)-2-(1,1-difluoroethyl)isonicotinamide], the pIC50 was 8.62.
As for `Cc1ccc(C(=O)Nc2cccc(C(F)F)c2)cc1-c1cc(N2CCOCC2)n(C)c(=O)c1` [Example 514, N-(3-(difluoromethyl)phenyl)-4-methyl-3-(1-methyl-6-morpholino-2-oxo-1,2-dihydropyridin-4-yl)benzamide], the figure is 8.96; as for `Cc1ccc(C(=O)Nc2cccc(C(C)(C)C#N)c2)cc1-c1cc(N2CCOCC2)n(C)c(=O)c1` [Example 515, N-(3-(2-cyanopropan-2-yl)phenyl)-4-methyl-3-(1-methyl-6-morpholino-2-oxo-1,2-dihydropyridin-4-yl)benzamide], 8.35; as for `Cc1ccc(C(=O)Nc2cccc(C(C)(C)O)c2)cc1-c1cc(N2CCOCC2)n(C)c(=O)c1` [Example 516, N-(3-(2-hydroxypropan-2-yl)phenyl)-4-methyl-3-(1-methyl-6-morpholino-2-oxo-1,2-dihydropyridin-4-yl)benzamide], 7.75.
As for `Cc1ccc(C(=O)Nc2cccc(C(F)(F)F)c2)cc1-c1cc(N2CCOCC2)n(C)c(=O)c1` [Example 517, 4-methyl-3-(1-methyl-6-morpholino-2-oxo-1,2-dihydropyridin-4-yl)-N-(3-(trifluoromethyl)phenyl)benzamide], the figure is 8.92.
For the molecule `Cc1ccc(C(=O)Nc2ccccc2)cc1-c1cc(N2CCOCC2)n(C)c(=O)c1` [Example 518, 4-methyl-3-(1-methyl-6-morpholino-2-oxo-1,2-dihydropyridin-4-yl)-N-phenylbenzamide], the pIC50 is 7.10.
As for `CCn1c(N2CCOCC2)cc(-c2cc(NC(=O)c3ccnc(C(C)(F)F)c3)ccc2C)cc1=O` [Example 519, 2-(1,1-difluoroethyl)-N-(3-(1-ethyl-6-morpholino-2-oxo-1,2-dihydropyridin-4-yl)-4-methylphenyl)isonicotinamide], the figure is 9.22; as for `CCn1c(N2CCOCC2)cc(-c2cc(NC(=O)c3ccnc(C(F)(F)CC)c3)ccc2C)cc1=O` [Example 520, 2-(1,1-difluoropropyl)-N-(3-(1-ethyl-6-morpholino-2-oxo-1,2-dihydropyridin-4-yl)-4-methylphenyl)isonicotinamide], 8.68.
In the case of `CCn1c(N2CCOCC2)cc(-c2cc(NC(=O)c3ccnc(C(C)C)c3)ccc2C)cc1=O` [Example 522, N-(3-(1-ethyl-6-morpholino-2-oxo-1,2-dihydropyridin-4-yl)-4-methylphenyl)-2-isopropylisonicotinamide], the pIC50 is 8.60.
As for `Cc1ccc(NC(=O)c2ccnc(C(C)(F)F)c2)cc1-c1cc(N2CCOC[C@H]2C)n(C)c(=O)c1` [Example 523, (R)-2-(1,1-difluoroethyl)-N-(4-methyl-3-(1-methyl-6-(3-methylmorpholino)-2-oxo-1,2-dihydropyridin-4-yl)phenyl)isonicotinamide], the figure is 8.43; as for `Cc1ncc(NC(=O)c2ccnc(C(C)(F)F)c2)cc1-c1cc(N2CCOC[C@H]2C)n(C)c(=O)c1` [Example 524, (R)-2-(1,1-difluoroethyl)-N-(1′,2-dimethyl-6′-(3-methylmorpholino)-2′-oxo-1′,2′-dihydro-[3,4′-bipyridin]-5-yl)isonicotinamide], 7.39; as for `Cc1ccc(NC(=O)c2ccnc(C(C)(F)F)c2)cc1-c1cc(N2CCOC[C@@H]2C)n(C)c(=O)c1` [Example 525, (S)-2-(1,1-difluoroethyl)-N-(4-methyl-3-(1-methyl-6-(3-methylmorpholino)-2-oxo-1,2-dihydropyridin-4-yl)phenyl)isonicotinamide], 8.42.
With `Cc1ccc(NC(=O)c2ccnc(C(C)(F)F)c2)cc1-c1cc(N2C3CCC2COC3)n(C)c(=O)c1` [Example 527, N-(3-(6-(3-oxa-8-azabicyclo[3.2.1]octan-8-yl)-1-methyl-2-oxo-1,2-dihydropyridin-4-yl)-4-methylphenyl)-2-(1,1-difluoroethyl)isonicotinamide] the figure was 8.25; with `Cn1c(N2C3CCC2COC3)cc(-c2cc(NC(=O)c3ccnc(C(C)(F)F)c3)cnc2Cl)cc1=O` [Example 528, N-(6′-(3-oxa-8-azabicyclo[3.2.1]octan-8-yl)-2-chloro-1′-methyl-2′-oxo-1′,2′-dihydro-[3,4′-bipyridin]-5-yl)-2-(1,1-difluoroethyl)isonicotinamide], 7.82; with `Cc1ncc(NC(=O)c2ccnc(C(C)(F)F)c2)cc1-c1cc(N2CCO[C@@H](CO)C2)n(C)c(=O)c1` [Example 529, (R)-2-(1,1-difluoroethyl)-N-(6′-(2-(hydroxymethyl)morpholino)-1′,2-dimethyl-2′-oxo-1′,2′-dihydro-[3,4′-bipyridin]-5-yl)isonicotinamide], 7.12.
With `Cc1ncc(NC(=O)c2ccnc(C(C)(F)F)c2)cc1-c1cc(N2CCO[C@H](CO)C2)n(C)c(=O)c1` [Example 530, (S)-2-(1,1-difluoroethyl)-N-(6′-(2-(hydroxymethyl)morpholino)-1′,2-dimethyl-Z-oxo-1′,2′-dihydro-[3,4′-bipyridin]-5-yl)isonicotinamide] the figure was 7.29; with `Cc1ccc(NC(=O)c2ccnc(C(C)(C)C#N)c2)cc1-c1cncc(N2CCOCC2)n1` [Example 531, 2-(2-cyanopropan-2-yl)-N-(4-methyl-3-(6-morpholinopyrazin-2-yl)phenyl)isonicotinamide], 8.30; with `Cc1ncc(NC(=O)c2ccnc(C(C)(C)C#N)c2)cc1-c1cncc(N2CCOCC2)n1` [Example 532, 2-(2-cyanopropan-2-yl)-N-(6-methyl-5-(6-morpholinopyrazin-2-yl)pyridin-3-yl)isonicotinamide], 8.11.
As for `Cc1ncc(NC(=O)c2ccnc(C(C)(F)F)c2)cc1-c1cncc(N2CCOCC2)n1` [Example 533, 2-(1,1-difluoroethyl)-N-(6-methyl-5-(6-morpholinopyrazin-2-yl)pyridin-3-yl)isonicotinamide], the pIC50 was 8.36.
On to `Cc1ncc(NC(=O)c2ccnc(C(C)(C)F)c2)cc1-c1cncc(N2CCOCC2)n1` [Example 534, 2-(2-fluoropropan-2-yl)-N-(6-methyl-5-(6-morpholinopyrazin-2-yl)pyridin-3-yl)isonicotinamide], for which the pIC50 was 8.22.
As for `Cc1ncc(NC(=O)c2ccnc(C(F)F)c2)cc1-c1cncc(N2CCOCC2)n1` [Example 535, 2-(difluoromethyl)-N-(6-methyl-5-(6-morpholinopyrazin-2-yl)pyridin-3-yl)isonicotinamide], the figure is 7.34.
With `CCC(F)(F)c1cc(C(=O)Nc2cnc(C)c(-c3cncc(N4CCOCC4)n3)c2)ccn1` [Example 537, 2-(1,1-difluoropropyl)-N-(6-methyl-5-(6-morpholinopyrazin-2-yl)pyridin-3-yl)isonicotinamide] the figure was 8.36; with `CCOc1ncc(-c2cc(NC(=O)c3cccc(C(F)(F)F)c3)ccc2C)nc1N1CCOCC1` [Example 538, N-(3-(5-ethoxy-6-morpholinopyrazin-2-yl)-4-methylphenyl)-3-(trifluoromethyl)benzamide], 8.92.
As for `CCOc1ncc(-c2cc(NC(=O)c3cccc(C(F)(F)F)c3)cnc2C)nc1N1CCOCC1` [Example 539, N-(5-(5-ethoxy-6-morpholinopyrazin-2-yl)-6-methylpyridin-3-yl)-3-(trifluoromethyl)benzamide], the figure is 8.55; as for `CCOc1ncc(-c2cc(NC(=O)c3cc(CN(C)C)cc(C(F)(F)F)c3)cnc2C)nc1N1CCOCC1` [Example 545, 3-((dimethylamino)methyl)-N-(5-(5-ethoxy-6-morpholinopyrazin-2-yl)-6-methylpyridin-3-yl)-5-(trifluoromethyl)benzamide], 7.78; as for `COc1ncc(-c2cc(NC(=O)c3ccnc(S(C)(=O)=O)c3)ccc2C)nc1N1CCOCC1` [Example 546, N-(3-(5-methoxy-6-morpholinopyrazin-2-yl)-4-methylphenyl)-2-(methylsulfonyl)isonicotinamide], 8.30.
For the molecule `COc1nnc(-c2cc(NC(=O)c3ccnc(C(F)(F)F)c3)ccc2C)cc1N1CCOCC1` [Example 547, N-(3-(6-methoxy-5-morpholinopyridazin-3-yl)-4-methylphenyl)-2-(trifluoromethyl)isonicotinamide], the pIC50 was 9.00.
